Here are results for 20 compounds from patent publication US9796733B2, “Imidazo-pyrazine derivatives useful as soluble guanylate cyclase activators” (Merck Sharp & Dohme Corp., priority 2014, dated 2017).

This assay has as its target T1, sGC α1/β1 heterodimer (Homo sapiens, UniProt Q02108+Q02153).
T1 construct: expressed in transfected cells; host or cells: CHO-K1 (clone #7, CHO-K1/sGC)
T1 sequence (Q02108 1-690): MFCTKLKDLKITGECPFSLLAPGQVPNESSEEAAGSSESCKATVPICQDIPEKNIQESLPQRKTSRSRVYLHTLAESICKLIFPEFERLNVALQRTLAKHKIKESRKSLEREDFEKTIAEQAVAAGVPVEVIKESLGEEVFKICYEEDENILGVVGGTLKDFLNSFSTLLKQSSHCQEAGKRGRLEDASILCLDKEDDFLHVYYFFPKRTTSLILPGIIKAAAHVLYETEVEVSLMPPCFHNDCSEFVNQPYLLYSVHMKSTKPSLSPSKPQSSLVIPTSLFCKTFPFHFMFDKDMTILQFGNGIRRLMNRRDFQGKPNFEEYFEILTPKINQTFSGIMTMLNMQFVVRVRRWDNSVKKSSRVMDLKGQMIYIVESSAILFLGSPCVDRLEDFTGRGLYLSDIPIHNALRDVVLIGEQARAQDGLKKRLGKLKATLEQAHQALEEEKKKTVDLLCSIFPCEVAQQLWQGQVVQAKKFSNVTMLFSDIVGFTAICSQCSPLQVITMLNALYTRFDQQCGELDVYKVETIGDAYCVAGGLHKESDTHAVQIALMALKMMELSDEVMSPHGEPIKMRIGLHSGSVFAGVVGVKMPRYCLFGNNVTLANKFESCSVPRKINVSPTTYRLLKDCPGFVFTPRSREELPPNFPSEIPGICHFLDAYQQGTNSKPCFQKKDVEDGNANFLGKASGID
T1 sequence (Q02153 1-619): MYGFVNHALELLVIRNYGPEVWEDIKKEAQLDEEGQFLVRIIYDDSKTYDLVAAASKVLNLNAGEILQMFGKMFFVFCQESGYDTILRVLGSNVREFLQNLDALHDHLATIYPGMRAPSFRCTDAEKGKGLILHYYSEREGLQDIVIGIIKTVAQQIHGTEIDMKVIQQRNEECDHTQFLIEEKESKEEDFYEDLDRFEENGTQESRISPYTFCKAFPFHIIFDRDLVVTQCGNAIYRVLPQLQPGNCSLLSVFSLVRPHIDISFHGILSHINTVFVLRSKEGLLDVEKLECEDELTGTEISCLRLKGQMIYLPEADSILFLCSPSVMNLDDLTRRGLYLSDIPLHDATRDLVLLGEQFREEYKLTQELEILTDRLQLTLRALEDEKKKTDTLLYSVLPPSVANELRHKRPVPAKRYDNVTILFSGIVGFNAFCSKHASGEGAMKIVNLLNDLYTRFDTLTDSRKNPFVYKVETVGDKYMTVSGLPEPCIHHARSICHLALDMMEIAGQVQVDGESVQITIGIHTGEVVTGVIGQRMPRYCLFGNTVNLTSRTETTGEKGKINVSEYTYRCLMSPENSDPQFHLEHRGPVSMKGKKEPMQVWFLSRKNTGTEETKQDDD
Put plainly: Cell-based sGC functional assay (CASA assay): cGMP generation in CHO-K1/sGC cells, HTRF detection. Conditions: for Emax: CHO-K1, percent activation relative to standard Compound A in CHO-K1/sGC cells, read-out: % Act.; for EC50: inflection point (IP) of cGMP generation in CHO-K1/sGC cells, 4P fit, activity expressed as percentage of Compound A. Summed up: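 Stable CHO-K1/sGC cells in EBSS buffer with 5 mM MgCl2, 0.05% BSA and 0.5 mM IBMX were incubated with compound (2.5% DMSO final) ±1 μM DETA-NO for 1 hr at 37° C. cGMP was measured by HTRF. Activation is expressed as % of reference HDA Compound A maximum, with IP and max fold induction from a 4P fit.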
A general note: In TR-FRET formats the signal depends on donor and acceptor labels being close together.

With `CC1(C(=O)NC2CC2)C(=O)Nc2nc(-c3cn4cc(C(F)(F)F)nc4c(Cc4ccc(F)c(F)c4)n3)nc(N)c21` (stereo not shown) [Example 52A, 4-amino-N-cyclopropyl-2-(8-(3,4-difluorobenzyl)-2-(trifluoromethyl)imidazo[1,2-a]pyrazin-6-yl)-5-methyl-6-oxo-6,7-dihydro-5H-pyrrolo[2,3-d]pyrimidine-5-carboxamide], the Emax stood at 93% and the EC50 turned out to be 950 nM.
Consider `Nc1nc(-c2cn3ccnc3c(CCC(F)(F)C(F)(F)F)n2)nc2c1C(c1nnc(C3CC3)s1)(C1CC1)C(=O)N2` (stereo not shown) [Example 54A, 4-amino-5-cyclopropyl-5-(5-cyclopropyl-1,3,4-thiadiazol-2-yl)-2-(8-(3,3,4,4,4-pentafluorobutyl)imidazo[1,2-a]pyrazin-6-yl)-5H-pyrrolo[2,3-d]pyrimidin-6(7H)-one], for which the Emax came out at 91% and the EC50 came to 144 nM.
On to `CC(C)c1nnc(C2(C3CC3)C(=O)Nc3nc(-c4cn5ccnc5c(CCC(F)(F)C(F)(F)F)n4)nc(N)c32)s1` (stereo not shown) [Example 55A, 4-amino-5-cyclopropyl-5-(5-isopropyl-1,3,4-thiadiazol-2-yl)-2-(8-(3,3,4,4,4-pentafluorobutyl)imidazo[1,2-a]pyrazin-6-yl)-5H-pyrrolo[2,3-d]pyrimidin-6(7H)-one], for which the Emax worked out at 93% and the EC50 was determined as 634 nM.
The like results for `Nc1nc(-c2cn3ccnc3c(CCC(F)(F)C(F)(F)F)n2)nc2c1C(c1nnc(C3CC3)o1)(C1CC1)C(=O)N2` (stereo not shown) [Example 56B, 4-amino-5-cyclopropyl-5-(5-cyclopropyl-1,3,4-oxadiazol-2-yl)-2-(8-(3,3,4,4,4-pentafluorobutyl)imidazo[1,2-a]pyrazin-6-yl)-5H-pyrrolo[2,3-d]pyrimidin-6(7H)-one] were, in that order, 89% and 772 nM.
Consider `Cc1nnc(C2(C)C(=O)Nc3nc(-c4cn5ccnc5c(CCC(F)(F)C(F)(F)F)n4)nc(N)c32)o1` (stereo not shown) [Example 57A, 4-amino-5-methyl-5-(5-methyl-1,3,4-oxadiazol-2-yl)-2-(8-(3,3,4,4,4-pentafluorobutyl)imidazo[1,2-a]pyrazin-6-yl)-5H-pyrrolo[2,3-d]pyrimidin-6(7H)-one], for which the Emax was determined as 101% and the EC50 was found to be 920 nM.
With `Cc1nnc(C2(C)C(=O)Nc3nc(-c4cn5ccnc5c(CCC(F)(F)C(F)(F)F)n4)nc(N)c32)s1` (stereo not shown) [Example 58A, 4-amino-5-methyl-5-(5-methyl-1,3,4-thiadiazol-2-yl)-2-(8-(3,3,4,4,4-pentafluorobutyl)imidazo[1,2-a]pyrazin-6-yl)-5H-pyrrolo[2,3-d]pyrimidin-6(7H)-one], the Emax is 93% and the 50% effective concentration (EC50) was 636 nM.
The like results for `CC(C)n1cc(C2(C)C(=O)Nc3nc(-c4cn5ccnc5c(Cc5ccc(F)cc5)n4)nc(N)c32)nn1` (stereo not shown) [Example 63A, 4-Amino-2-(8-(4-fluorobenzyl)imidazo[1,2-a]pyrazin-6-yl)-5-(1-isopropyl-1H-1,2,3-triazol-4-yl)-5-methyl-5H-pyrrolo[2,3-d]pyrimidin-6(7H)-one] were, in that order, 99% and 109 nM.
For `CCn1cc(C2(C)C(=O)Nc3nc(-c4cn5ccnc5c(Cc5ccc(F)cc5)n4)nc(N)c32)nn1` (stereo not shown) [Example 64A, 4-amino-5-(1-ethyl-1H-1,2,3-triazol-4-yl)-2-(8-(4-fluorobenzyl)imidazo[1,2-a]pyrazin-6-yl)-5-methyl-5H-pyrrolo[2,3-d]pyrimidin-6(7H)-one], the Emax is 115% and the EC50 came to 196 nM.
For the compound `Cn1cc(C2(C)C(=O)Nc3nc(-c4cn5ccnc5c(Cc5ccc(F)cc5)n4)nc(N)c32)nn1` (stereo not shown) [Example 65A, 4-amino-2-(8-(4-fluorobenzyl)imidazo[1,2-a]pyrazin-6-yl)-5-methyl-5-(1-methyl-1H-1,2,3-triazol-4-yl)-5H-pyrrolo[2,3-d]pyrimidin-6(7H)-one], the Emax came out at 108% and the response was half-maximal at 256 nM (EC50).
Regarding `C#CC1(C)C(=O)Nc2nc(-c3cn4ccnc4c(CCC(F)(F)C(F)(F)F)n3)nc(N)c21` (stereo not shown) [Example 66A, 4-amino-5-ethynyl-5-methyl-2-(8-(3,3,4,4,4-pentafluorobutyl)imidazo[1,2-a]pyrazin-6-yl)-5H-pyrrolo[2,3-d]pyrimidin-6(7H)-one], the Emax is 127% and the EC50 turned out to be 252 nM.
With `CC(C)n1cc(C2(C)C(=O)Nc3nc(-c4cn5ccnc5c(CCC(F)(F)C(F)(F)F)n4)nc(N)c32)nn1` (stereo not shown) [Example 67A, 4-amino-5-(1-isopropyl-1H-1,2,3-triazol-4-yl)-5-methyl-2-(8-(3,3,4,4,4-pentafluorobutyl)imidazo[1,2-a]pyrazin-6-yl)-5H-pyrrolo[2,3-d]pyrimidin-6(7H)-one], the Emax amounted to 120% and it took 746 nM to reach a half-maximal effect (EC50).
The like results for `CC1(C)C(=O)Nc2nc(-c3cn4ccnc4c(Cc4ccc(F)cc4)n3)nc(N)c21` [Example 72, 4-amino-2-(8-(4-fluorobenzyl)imidazo[1,2-a]pyrazin-6-yl)-5,5-dimethyl-5H-pyrrolo[2,3-d]pyrimidin-6(7H)-one] were, in that order, 126% and 342 nM.
Take `CC1(C)C(=O)Nc2nc(-c3cn4ccnc4c(Cc4ccc(F)c(F)c4)n3)nc(N)c21` [Example 73, 4-amino-2-(8-(3,4-difluorobenzyl)imidazo[1,2-a]pyrazin-6-yl)-5,5-dimethyl-5H-pyrrolo[2,3-d]pyrimidin-6(7H)-one]: the Emax worked out at 111% and the EC50 turned out to be 44 nM.
Take `CC1(C)C(=O)Nc2nc(-c3cn4ccnc4c(Cc4cccc(Cl)c4)n3)nc(N)c21` [Example 74, 4-amino-2-(8-(3-chlorobenzyl)imidazo[1,2-a]pyrazin-6-yl)-5,5-dimethyl-5H-pyrrolo[2,3-d]pyrimidin-6(7H)-one]: the Emax amounted to 94% and the EC50 is 138 nM.
The like results for `CC1(C)C(=O)Nc2nc(-c3cn4cc(C(F)(F)F)nc4c(Cc4cccc(F)c4)n3)nc(N)c21` [Example 75, 4-amino-2-(8-(3-fluorobenzyl)-2-(trifluoromethyl)imidazo[1,2-a]pyrazin-6-yl)-5,5-dimethyl-5H-pyrrolo[2,3-d]pyrimidin-6(7H)-one] were, in that order, 99% and 862 nM.
Take `CCC1(CC)C(=O)Nc2nc(-c3cn4ccnc4c(Cc4ccccc4)n3)nc(N)c21` [Example 79, 4-amino-2-(8-benzylimidazo[1,2-a]pyrazin-6-yl)-5,5-diethyl-5H-pyrrolo[2,3-d]pyrimidin-6(7H)-one]: the Emax came to 112% and the EC50 was found to be 36 nM.
As to `CC(C)C1(C)C(=O)Nc2nc(-c3cn4ccnc4c(Cc4ccccc4)n3)nc(N)c21` (stereo not shown) [Example 80A, 4-amino-2-(8-benzylimidazo[1,2-a]pyrazin-6-yl)-5-isopropyl-5-methyl-5H-pyrrolo[2,3-d]pyrimidin-6(7H)-one], the Emax was 125% and the EC50 worked out at 66 nM.
`CC1(C2CC2)C(=O)Nc2nc(-c3cn4ccnc4c(Cc4ccccc4)n3)nc(N)c21` (stereo not shown) [Example 82A, 4-amino-2-(8-benzylimidazo[1,2-a]pyrazin-6-yl)-5-cyclopropyl-5-methyl-5H-pyrrolo[2,3-d]pyrimidin-6(7H)-one]: the Emax turned out to be 120% and the midpoint of the response, the EC50, lay at 90 nM.
With `CCC1(C)C(=O)Nc2nc(-c3cn4ccnc4c(Cc4ccccc4)n3)nc(N)c21` (stereo not shown) [Example 84A, 4-amino-2-(8-benzylimidazo[1,2-a]pyrazin-6-yl)-5-ethyl-5-methyl-5H-pyrrolo[2,3-d]pyrimidin-6(7H)-one], the Emax was 90% and the EC50 was 58 nM.
Consider `CC1(C)C(=O)Nc2nc(-c3cn4ccnc4c(CCC(F)(F)C(F)(F)F)n3)nc(N)c21` [Example 87, 4-amino-5,5-dimethyl-2-(8-(3,3,4,4,4-pentafluorobutyl)imidazo [1,2-a]pyrazin-6-yl)-5H-pyrrolo[2,3-d]pyrimidin-6(7H)-one], for which the Emax was 54% and the response was half-maximal at 399 nM (EC50).

As a reminder, the EC50 is the concentration that produces a half-maximal response. High values mean a less potent agent, low ones a more potent agent.
